Data as given in patent EP1192860B1, “UVA-tracer containing disinfectant and method of determining the degree of dilution of disinfectants using UVA-tracers” (Air Liquide Santé (International), priority 2000, dated 2002).
“Also recorded” adds a separate entry of the source.

Tests used:
Type in all cases: physicochemical
[1] = Solubility of selected UV-A-tracers in selected concentrates; details: for Solubilities of selected UV-A-tracers in concentrates and optically visible changes compared with the original concentrate: 0.2 g UV-A-tracer in 100 g concentrate, stirred 3 hours; for Solubility in the concentrates: all five concentrates (preparations 1 to 5)
Excerpt: Solubilities of selected UV-A-tracers in concentrates containing various active ingredient combinations (preparations 1 to 5) and optically visible changes compared with the original concentrate, "+" UV-A-tracer soluble in 100 g of preparation to at least 0.2 g, "y" the originally colourless concentrate turns yellowish as a result of the incorporation of the UV-A-tracer.

[2] = Stability investigations of UV-A-tracer-containing concentrates (optically visible changes on storage); details: clear glass bottles, room temperature, window-sill vs dark, 3 months
Excerpt: Since the UV-A-tracers are to be used for determining the active ingredient concentrations of disinfectant solutions, the UV-A-tracer-containing concentrates must be sufficiently stable throughout the entire storage life of the commercially available disinfectant concentrates (approximately 3 years). In order to investigate the stability of the UV-A-tracers, preparations 1 to 5 to which UV-A-tracers have been added were stored in clear glass bottles at room temperature firstly on a window-sill and secondly as a reference in the dark. Over a period of 3 months, the optically visible changes of the UV-A-tracer-containing preparations stored under varying conditions were observed and, at regular time intervals, 1% dilutions of these UV-A-tracer-containing preparations in water were investigated spectroscopically.

[3] = Absorption spectrophotometric stability investigations of the incorporated UV-A-tracers
Protocol: The long-term stability of combinations of concentrate and UV-A-tracers in the dark and under the effect of light was investigated by reference to UV spectra. The combinations below were used (Table 7): Table 7
Following storage at room temperature for 4, 8 or 12 weeks in the dark or in daylight, 1% strength dilutions of each of the preparations in water were prepared.

[4] = Prep.4 (Combinations of aldehydes)
[5] = Prep.5 (Quat + phenoxypropanols)
[6] = amine-containing preparations (1 and 2)

| SMILES | Solubilities of selected UV-A-tracers in concentrates and optically visible changes compared with the original concentrate ([1]; Prep.1 (Quat + alkylamine)) | Solubilities of selected UV-A-tracers in concentrates and optically visible changes compared with the original concentrate ([1]; Prep.2 (Quat + GuAc)) | Solubilities of selected UV-A-tracers in concentrates and optically visible changes compared with the original concentrate ([1]; Prep.3 (Quat + org. acid)) | Solubilities of selected UV-A-tracers in concentrates and optically visible changes compared with the original concentrate [1, 4] | Solubilities of selected UV-A-tracers in concentrates and optically visible changes compared with the original concentrate [1, 5] | Solubility in the concentrates [1] | Colour change on incorporation of the UV-A-tracer [1, 6] | Changes within the observation period ([2]; in Preparation 3) | Decomposition of the UV-A-tracer ([3]; preparations 3, 4 and 5, storage in the dark and in daylight) | Colour change on incorporation of the UV-A-tracer ([1]; all preparations) | Changes within the observation period ([2]; in Preparation 1) | Changes within the observation period ([2]; in Preparation 2) | Changes within the observation period ([2]; in Preparation 4) | Changes within the observation period ([2]; in Preparation 5) | Divergence of the absorptions between sample stored in the dark and sample exposed to daylight ([3]; in preparation 5, after 12 weeks, 1% strength dilutions in water) | Odour of the sample ([3]; in preparation 5, exposed to daylight, after 12 weeks) | Changes of the sample ([3]; in preparation 5, stored in the dark) |
| --- | --- | --- | --- | --- | --- | --- | --- | --- | --- | --- | --- | --- | --- | --- | --- | --- | --- |
| COc1ccc(C(=O)c2ccccc2)c(O)c1 [Benzophenone-3, 2-Hydroxy-4-methoxybenzophenone] | +y | +y | + (UV-A-tracer soluble in 100 g of preparation to at least 0.2 g) | + (UV-A-tracer soluble in 100 g of preparation to at least 0.2 g) | + (UV-A-tracer soluble in 100 g of preparation to at least 0.2 g) | dissolves without problems | intensive yellow coloration | does not display changes of any kind and none | In none of the three disinfectants was decomposition of benzophenone-3 observed | – | – | – | – | – | – | – | – |
| COc1cc(O)c(C(=O)c2ccccc2)cc1S(=O)(=O)O [Benzophenone-4, 2-Hydroxy-4-methoxybenzophenone-5-sulphonic acid] | +y | +y | + (UV-A-tracer soluble in 100 g of preparation to at least 0.2 g) | + (UV-A-tracer soluble in 100 g of preparation to at least 0.2 g) | + (UV-A-tracer soluble in 100 g of preparation to at least 0.2 g) | – | intensive yellow coloration | – | – | – | – | – | – | – | – | – | – |
| COc1ccc(C(=O)c2ccc(OC)cc2O)c(O)c1 [Benzophenone-6, 2,2'-Dihydroxy-4,4'-dimethoxybenzophenone] | +y | +y | +y | + (UV-A-tracer soluble in 100 g of preparation to at least 0.2 g) | + (UV-A-tracer soluble in 100 g of preparation to at least 0.2 g) | – | intensive yellow coloration | – | – | – | – | – | – | – | – | – | – |
| COc1cc(O)c(C(=O)c2cc(S(=O)(=O)[O-])c(OC)cc2O)cc1S(=O)(=O)[O-].[Na+].[Na+] [Benzophenone-9, 2,2'-dihydroxy-4,4'-dimethoxybenzophenone-5,5'-disodium sulphonate] | +y | +y | +y | + (UV-A-tracer soluble in 100 g of preparation to at least 0.2 g) | + (UV-A-tracer soluble in 100 g of preparation to at least 0.2 g) | – | intensive yellow coloration | – | – | – | – | – | – | – | – | – | – |
| CC1CCC(C(C)C)C(OC(=O)c2ccccc2N)C1 (stereo not drawn) [Menthyl anthranilate, Menthyl o-aminobenzoate] | + (UV-A-tracer soluble in 100 g of preparation to at least 0.2 g) | + (UV-A-tracer soluble in 100 g of preparation to at least 0.2 g) | + (UV-A-tracer soluble in 100 g of preparation to at least 0.2 g) | + (UV-A-tracer soluble in 100 g of preparation to at least 0.2 g) | + (UV-A-tracer soluble in 100 g of preparation to at least 0.2 g) | dissolves in all preparations | – | intensive yellow coloration | – | without visible colour changes | slight yellowish tinge; also recorded: slight yellow coloration | slight yellowish tinge; also recorded: slight yellow coloration | pale yellow-green colour | from green to yellow | significant divergence | intensive unpleasant odour | does not display any perceptible changes |
